Measurements taken from patent US7723328B2, “Methods of facilitating cell survival using neurotrophin mimetics” (The University of North Carolina at Chapel Hill, priority 2005, dated 2010).
“Also recorded” adds a separate entry of the source. Read-outs that look alike come from different tables or passages of the source.

Tests used:
p75^NTR-Fc [1] = target: T1, p75^NTR-Fc (Homo sapiens, UniProt P08138); assay: NGF/p75NTR-Fc binding by NGF ELISA, Gaddum/Schild fit; details: read-out: KD for NGF; in the absence of compounds
T1 construct: purchased R&D Systems
Method: Briefly, 96-well plates were incubated with 0.1 pmol (at 1 nM) of p75/Fc or TrkA/Fc recombinant protein obtained from R&D System (Minneapolis, Minn., United States of America) overnight at 4° C. followed by incubation with blocking buffer for 1 hour at room temperature. […] Plates were then washed five times with Tris-buffered saline (TBS) containing 0.05% Tween-20 and incubated with anti-NGF rabbit polyclonal antibody overnight at 4° C. Following five washes with TBS, wells were incubated for 2.5 hours at room temperature with anti-rabbit IgG HRP conjugate and washed five times. 3,3′,5,5′-tetramethyl-benzidine substrate was added and the optical density measured at 450 nm.
A regression analysis of NGF-p75^NTR binding in the presence of the p75-binding compounds was performed. The data was fit using the Nonlinear Regression module of Sigmaplot, to a modification of the Gaddum/Schild equation (adapted from Motulsky, H. J., and Christopoulos. A. (2003) A Practical Guide to Curve Fitting, 2nd edn. (San Diego, Calif., GraphPad Software, Inc.): […]

p75^NTR-Fc [2] = target: T1, p75^NTR-Fc; details: read-out: KD for NGF, previous reports; Nykjaer et al. 2004; cited from earlier work
TrkB = target: T2, TrkB (Mus musculus, UniProt P15209); assay: Trk Y490 phosphorylation western blot in hippocampal neuron cultures; format: cell-based; details: 10 or 30 minutes
T2 construct: endogenous in cells; host or cells: primary hippocampal neurons from E16-17 mouse embryos
Method: (§1) For assays of Trk, AKT, NFκB, and ERK activation, hippocampal neurons derived from E16-17 mice were cultured in poly-L-lysine coated six-well plates (Corning, Inc., Corning, N.Y., United States of America) in DMEM containing 10% FBS, followed by incubation in serum-free DMEM for 2 hours before addition of neurotrophins or compounds. At the indicated time points, neurons were harvested in lysis buffer consisting of: 20 mM Tris, pH 8.0, 137 mM NaCl, 1% Igepal CA-630, 10% glycerol, 1 mM PMSF, 10 μg/ml aprotinin, 1 μg/ml leupeptin, 500 μM orthovanadate (Zhou, J., Valletta, J. S., Grimes, M. L., Mobley, W. C. (1995) J Neurochem 65, 1146-1156).
(§2) Lysates were centrifuged, the supernatant collected, and protein concentrations determined using the BCA Protein Assay Reagent obtained from Pierce (Rockford, Ill., United States of America). Western blots were performed as described previously (Yang, T. et al. (2003) J Neurosci 23, 3353-3363). Western blot signals were detected using the ECL Chemiluminescence System obtained by Amersham (Piscataway, N.J., United States of America) (Yang, T. et al. (2003) J Neurosci 23, 3353-3363).

hippocampal neurons = assay: Hippocampal neuron survival with signaling pathway inhibitors; format: cell-based, mouse; details: PD98059 50 μM; BDNF/NGF 25 ng/ml, compounds 5 nM; 48 h
Method: (§3) Hippocampal neurons were prepared from E16-17 mouse embryos as previously described (Yang. T. et al. (2003) J Neurosci 23, 3353-3363). […] For studies employing p75^NTR+/+ and p75^NTR−/− neurons, mice carrying a mutation in exon 3 of the p75^NTR gene (Lee, K. F. et al. (1992) Cell 69, 737-749) were bred onto a B6 congenic background (>10 B6 backcrosses).
(§4) After 48 hours in culture, cell survival was assessed as previously described (Longo, F. M., Manthorpe. M., Xie. Y. M., Varon, S. (1997) J Neurosci Res 48, 1-17) using a combination of standard morphological criteria along with visual determination of whether a given cell converted MTT to its blue formazan product. The number of surviving neurons was determined by counting the total number of cells in each well that were both morphologically intact and filed with blue product (Longo F. M., Manthorpe. M., Xie, Y. M., Varon, S. (1997) J Neurosci Res 48, 1-17). For each neurotrophin or compound concentration, duplicate wells were counted and the resulting values averaged. Activity of each compound was confirmed by blinded counts. Counts were normalized to survival achieved with 25 ng/ml BDNF or to baseline survival. Fitting of dose-responsive curves was performed with Sigmaplot obtained from SYSTAT Software Inc. (Richmond, Calif., United States of America).
(§5) For all studies applying signaling inhibitors, p75^NTR antibodies or p75^NTR−/− neurons, survival was assessed at 48 hours.

AKT = AKT activation western blot in hippocampal cultures; format: cell-based, mouse; details: p75NTR−/− neurons, versus culture medium alone
Method: as §1, §2

p75^NTR−/− cells = assay: Survival of p75NTR+/+ versus p75NTR-/- hippocampal neurons; format: cell-based, mouse; details: neurotrophins 1.8 nM, compounds 5 nM
Method: as §3, §4, §5

ERK42 = ERK42 activation western blot in hippocampal cultures; format: cell-based, mouse; details: compounds 20 nM, BDNF/NGF 50 ng/ml; 10 and 30 min
Method: as §1, §2

E17 hippocampal neurons = assay: Aβ-induced death of hippocampal neurons; format: cell-based; details: Aβ1-42 10 μM; NGF at 100 pg/ml
Method: Using previously well established protocols, Aβ was preincubated for 3 days in water to allow formation of oligomers. E17 hippocampal neurons were incubated for 5 days to allow for maturation prior to addition of Aβ with test compounds.

T1 sequence (P08138 with tags, fused parts or gaps limits assumed): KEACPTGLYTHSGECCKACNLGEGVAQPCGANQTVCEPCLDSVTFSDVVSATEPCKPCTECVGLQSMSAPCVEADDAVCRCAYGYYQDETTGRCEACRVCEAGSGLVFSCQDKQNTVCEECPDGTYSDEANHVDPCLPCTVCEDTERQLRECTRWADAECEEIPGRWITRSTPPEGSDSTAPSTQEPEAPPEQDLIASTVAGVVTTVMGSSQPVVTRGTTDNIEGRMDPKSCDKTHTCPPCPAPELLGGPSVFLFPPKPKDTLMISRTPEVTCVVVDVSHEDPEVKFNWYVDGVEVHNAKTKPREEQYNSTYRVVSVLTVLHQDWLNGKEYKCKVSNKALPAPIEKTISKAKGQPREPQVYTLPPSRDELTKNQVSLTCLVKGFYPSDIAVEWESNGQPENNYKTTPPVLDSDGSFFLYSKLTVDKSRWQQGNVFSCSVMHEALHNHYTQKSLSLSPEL
T2 sequence (P15209 32-821): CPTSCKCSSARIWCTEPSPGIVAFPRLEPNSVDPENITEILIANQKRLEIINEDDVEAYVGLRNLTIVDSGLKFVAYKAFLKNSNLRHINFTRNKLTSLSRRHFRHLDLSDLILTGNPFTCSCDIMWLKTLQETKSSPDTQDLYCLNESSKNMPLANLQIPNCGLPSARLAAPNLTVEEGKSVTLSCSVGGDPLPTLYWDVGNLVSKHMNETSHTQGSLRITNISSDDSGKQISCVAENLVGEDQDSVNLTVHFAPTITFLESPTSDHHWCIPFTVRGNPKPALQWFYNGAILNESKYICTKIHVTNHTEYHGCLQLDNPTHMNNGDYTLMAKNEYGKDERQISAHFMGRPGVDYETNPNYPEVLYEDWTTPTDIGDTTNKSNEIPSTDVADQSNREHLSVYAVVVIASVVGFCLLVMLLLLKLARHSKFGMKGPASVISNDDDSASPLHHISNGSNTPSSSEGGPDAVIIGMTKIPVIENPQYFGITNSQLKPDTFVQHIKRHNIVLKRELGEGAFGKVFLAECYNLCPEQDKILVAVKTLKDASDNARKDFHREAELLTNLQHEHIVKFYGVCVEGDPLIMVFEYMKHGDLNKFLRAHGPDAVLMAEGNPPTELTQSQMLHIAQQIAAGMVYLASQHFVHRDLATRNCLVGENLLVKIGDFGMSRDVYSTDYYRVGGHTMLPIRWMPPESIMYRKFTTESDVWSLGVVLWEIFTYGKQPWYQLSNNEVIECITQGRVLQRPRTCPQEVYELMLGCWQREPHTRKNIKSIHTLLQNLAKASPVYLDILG

## NGF: Recombinant human NGF obtained from Invitrogen
p75^NTR-Fc [1]
  Kd: 0.8 to 0.9 nM
p75^NTR-Fc [2]
  Kd: ~1 nM
TrkB
  TrkB activation (Trk Y490 phosphorylation): no activation was detected
Hippocampal neurons
  effect of PD98059 (ERK inhibitor) on survival promoted by the substance: small but significant effect; also recorded: small effects
AKT
  AKT activation in p75NTR−/− cells: completely absent
p75^NTR−/− cells
  effect of p75NTR-deficiency on promotion of neuron survival by the substance: lack of response; also recorded: completely inhibits
ERK42
  ERK42 activation: greater with BDNF and NGF treatment than with the p75-binding compounds
E17 hippocampal neurons
  protection against Aβ1-42-induced death: fails to protect; also recorded: did not protect
